From patent US7199120B2, “Pyrazolo-pyridine derivatives as antiherpes agents” (SmithKline Beecham Corporation, priority 2001, dated 2007)

Tested on: HSV-1
Test: HSV-1 replication in infected Vero 76 cells, viral DNA hybridization capture assay
Type: cell-based, herpes simplex virus 1
Details: Human alphaherpesvirus 1; HSV-1 (MOI=0.001) in Vero 76 cells, 40–48 hours incubation, chemiluminescent detection of HSV DNA
Method: Vero 76 cells were maintained in MEM with Earle's salts, L-glutamine, 8% FBS (Hyclone, A-1111-L) and 100 units/mL Penicillin-100 μg/mL Streptomycin. For assay conditions, FBS was reduced to 2%. Cells are seeded into 96-well tissue culture plates at a density of 5×10^4 cells/well after being incubated for 45 min at 37° C. in the presence of HSV-1 or HSV-2 (MOI=0.001). Test compounds are added to the wells and the plates are incubated at 37° C. for 40–48 hours. Cell lysates are prepared as follows: media was removed and replaced with 150 μL/well 0.2 N NaOH with 1% Igepal CA 630 or NP-40. Plates were incubated up to 14 days at room temperature in a humidified chamber to prevent evaporation.
For the detection probe, a gel-purified, digoxigenin-labeled, 710-bp PCR fragment of the HSV UL-15 sequence was utilized. PCR conditions included 0.5 μM primers, 180 μM dTTP, 20 μM dUTP-digoxigenin (Boehringer Mannheim 1558706), 200 μM each of dATP, dCTP, and dGTP, 1×PCR Buffer II (Perkin Elmer), 2.5 mM MgCl2, 0.025 units/μL of AmpliTaq Gold polymerase (Perkin Elmer), and 5 ng of gel-purified HSV DNA per 100 μL Extension conditions were 10 min at 95° C., followed by 30 cycles of 95° C. for 1 min, 55° C. for 30 sec, and 72° C. for 2 min. The amplification was completed with a 10-min incubation at 72° C. Primers were selected to amplify a 728 bp probe spanning a section of the HSV1 UL15 open reading frame (nucleotides 249–977). Single-stranded transcripts were purified with Promega M13 Wizard kits. The final product was mixed 1:1 with a mixture of 6 M GuSCN, 100 mM EDTA and 200 μg/mL herring sperm DNA and stored at 4° C.
The capture DNA plasmid (HSV UL13 region in pUC) was linearized by cutting with Xba I, denatured for 15 min at 95° C. and diluted immediately into Reacti-Bind DNA Coating Solution (Pierce, 17250, diluted 1:1 with TE buffer, pH 8) at 1 ng/μL 75 μL/well were added to Corning (#3922 or 9690) white 96-well plates and incubated at room temperature for at least 4 hrs before washing twice with 300 μL/well 0.2×SSC/0.05% Tween-20 (SSC/T buffer). The plates were then incubated overnight at room temperature with 150 μL/well 0.2 N NaOH, 1% IGEPAL and 10 μg/mL herring sperm DNA.
Twenty-seven (27) μL of cell lysate was combined with 45 μL of hybridization solution (final concentration: 3M GuSCN, 50 mM EDTA, 100 μg/ml salmon sperm DNA, 5× Denhardt's solution, 0.25×APE, and 5 ng of the digoxigenin-labeled detection probe). APE is 1.5 M NH4-acetate, 0.15 M ammonium phosphate monobasic, and 5 mM EDTA adjusted to pH 6.0. Mineral oil (50 μL) was added to prevent evaporation. The hybridization plates were incubated at 95° C. for 10 minutes to denature the DNA, then incubated at 42° C. overnight. The wells were washed 6× with 300 μl/well SSC/T buffer then incubated with 75 μL/well anti-digoxigenin-HRP-conjugated antibody (Boehringer Mannheim 1207733, 1:5000 in TE) for 30 min at room temperature. The wells were washed 6× with […] with PBS/0.05% Tween-20 before 75 μL/well SuperSignal LBA substrate (Pierce) was added. The plates were incubated at room temperature for 30 minutes and chemiluminescence was measured in a Wallac Victor reader.

| SMILES | IC50 |
| --- | --- |
| CC(C)CNc1nccc(-c2nn3c(NCC(C)C)cccc3c2-c2ccnc(NCC(C)C)n2)n1 [Example 11, N-Isobutyl-2,3-bis[2-(isobutylamino)pyrimidin-4-yl]pyrazolo[1,5-a]pyridin-7-amine] | 1.6 µM |
| c1ccn2nc(-c3ccnc(NC4CCCC4)n3)c(-c3ccnc(NC4CCCC4)n3)c2c1 [Example 4, N-Cyclopentyl-N-(4-{2-[2-(cyclopentylamino)-4-pyrimidinyl]pyrazolo[1,5-a]pyridin-3-yl]-2-pyrimidinyl)amine] | 3.1 µM |
| c1cc(N2CCOCC2)n2nc(-c3ccnc(N4CCOCC4)n3)c(-c3ccnc(N4CCOCC4)n3)c2c1 [Example 10] | 33 µM |
| CC(C)Nc1nccc(-c2nn3c(NC(C)C)cccc3c2-c2ccnc(NC(C)C)n2)n1 [Example 13, N-Isopropyl-2,3-bis[2-(isopropylamino)pyrimidin-4-yl]pyrazolo[1,5-a]pyridin-7-amine] | 3.3 µM |
| CC(C)Nc1cc(-c2nn3c(NC(C)C)cccc3c2-c2ccnc(NC3CC3)n2)ccn1 [Example 17, 3-[2-(Cyclopropylamino)-4-pyrimidinyl]-N-isopropyl-2-[2-(isopropylamino)-4-pyridinyl]pyrazolo[1,5-a]pyridin-7-amine] | 2.9 µM |
| c1coc(-c2nn3c(NC4CC4)cccc3c2-c2ccnc(NC3CCCC3)n2)c1 [Example 26, 3-[2-(Cyclopentylamino)-4-pyrimidinyl]-N-cyclopropyl-2-(2-furyl)pyrazolo[1,5-a]pyridin-7-amine] | 1.4 µM |
| c1cc(NC2CC2)n2nc(-c3ccnc(NC4CC4)n3)c(-c3ccnc(NC4CC4)n3)c2c1 [Example 9, N-Cyclopropyl-2,3-bis[2-(cyclopropylamino)pyrimidin-4-yl]pyrazolo[1,5-a]pyridin-7-amine] | 23 µM |
| Cc1ccoc1-c1nn2c(NC3CC3)cccc2c1-c1ccnc(NC2CC2)n1 [Example 24, N-Cyclopropyl-3-[2-(cyclopropylamino)-4-pyrimidinyl]-2-(3-methyl-2-furyl)pyrazolo[1,5-a]pyridin-7-amine] | 5 µM |
| c1ccc(CNc2nccc(-c3nn4c(NCc5ccccc5)cccc4c3-c3ccnc(NCc4ccccc4)n3)n2)cc1 [Example 12, N-Benzyl-2,3-bis[2-(benzylamino)pyrimidin-4-yl]pyrazolo[1,5-a]pyridin-7-amine] | 36 µM |
| c1cc(NC2CCCC2)n2nc(-c3ccncc3)c(-c3ccnc(NC4CCCC4)n3)c2c1 [Example 1, N-Cyclopentyl-3-[2-(cyclopentylamino)-4-pyrimidinyl]-2-(4-pyridinyl)pyrazolo[1,5-a]pyridin-7-amine] | 1.5 µM |
| Cc1nc(-c2nn3c(NC4CCCC4)cccc3c2-c2ccnc(NC3CCCC3)c2)cs1 [Example 28, N-Cyclopentyl-3-[2-(cyclopentylamino)-4-pyridinyl]-2-(2-methyl-1,3-thiazol-4-yl)pyrazolo[1,5-a]pyridin-7-amine] | 1.7 µM |

Compounds with a lower IC50, results first:

| IC50 | SMILES |
| --- | --- |
| 0.5 µM | c1coc(-c2nn3c(NC4CCCC4)cccc3c2-c2ccnc(NC3CCCC3)c2)c1 [Example 21, N-Cyclopentyl-3-[2-(cyclopentylamino)-4-pyridinyl]-2-(2-furyl)pyrazolo[1,5-a]pyridin-7-amine] |
| 0.6 µM | c1cncc(-c2nn3c(NC4CCCC4)cccc3c2-c2ccnc(NC3CCCC3)n2)c1 [Example 3, N-cyclopentyl-3-[2-(cyclopentylamino)-4-pyrimidinyl]-2-(3-pyridinyl)pyrazolo[1,5-a]pyridin-7-amine] |
| 0.4 µM | c1cc(NC2CCCC2)n2nc(-c3ccnc(NC4CCCC4)n3)c(-c3ccnc(NC4CCCC4)n3)c2c1 [Example 6, N-Cyclopentyl-2,3-bis[2-(cyclopentylamino)-4-pyrimidinyl]pyrazolo[1,5-a]pyridin-7-amine] |
| 0.5 µM | CC(C)Nc1cc(-c2nn3c(NC4CCCC4)cccc3c2-c2ccnc(NC3CCCC3)n2)ccn1 [Example 20, N-Cyclopentyl-3-[2-(cyclopentylamino)-4-pyrimidinyl]-2-[2-(isopropylamino)-4-pyridinyl]pyrazolo[1,5-a]pyridin-7-amine] |
| 0.8 µM | Cc1ccoc1-c1nn2c(NC3CCCC3)cccc2c1-c1ccnc(NC2CC2)n1 [Example 23, N-Cyclopentyl-3-[2-(cyclopropylamino)-4-pyrimidinyl]-2-(3-methyl-2-furyl)pyrazolo[1,5-a]pyridin-7-amine] |
| 0.2 µM | Cc1ccoc1-c1nn2c(NC3CCCC3)cccc2c1-c1ccnc(NC2CCCC2)n1 [Example 22, N-Cyclopentyl-3-[2-(cyclopentylamino)-4-pyrimidinyl]-2-(3-methyl-2-furyl)pyrazolo[1,5-a]pyridin-7-amine] |
| 0.5 µM | Brc1ccc(-c2nn3c(NC4CCCC4)cccc3c2-c2ccnc(NC3CCCC3)n2)o1 [Example 27, 2-(5-Bromo-2-furyl)-N-cyclopentyl-3-[2-(cyclopentylamino)-4-pyrimidinyl]pyrazolo[1,5-a]pyridin-7-amine] |
| 1 µM | CC(C)Nc1nccc(-c2c(-c3ccnc(NC4CCCC4)c3)nn3c(NC4CCCC4)cccc23)n1 [Example 18, N-Cyclopentyl-2-[2-(cyclopentylamino)-4-pyridinyl]-3-[2-(isopropylamino)-4-pyrimidinyl]pyrazolo[1,5-a]pyridin-7-amine] |
| 0.7 µM | CC(C)Nc1cc(-c2nn3c(NC(C)C)cccc3c2-c2ccnc(NC3CCCC3)n2)ccn1 [Example 19, 3-[2-(Cyclopentylamino)-4-pyrimidinyl]-N-isopropyl-2-[2-(isopropylamino)-4-pyridinyl]pyrazolo[1,5-a]pyridin-7-amine] |
| 0.8 µM | CCCCNc1nccc(-c2nn3c(NCCCC)cccc3c2-c2ccnc(NCCCC)n2)n1 [Example 8, N-Butyl-2,3-bis[2-(butylamino)pyrimidin-4-yl]pyrazolo[1,5-a]pyridin-7-amine] |
| 0.5 µM | c1coc(-c2nn3c(NC4CCCC4)cccc3c2-c2ccnc(NC3CCCC3)n2)c1 [Example 25, N-Cyclopentyl-3-[2-(cyclopentylamino)-4-pyrimidinyl]-2-(2-furyl)pyrazolo[1,5-a]pyridin-7-amine] |
